{"source": "patent US8609870B2", "about": "“Treating various disorders using TrkB agonists” (Emory University, priority 2008, dated 2013)", "key": {"TrkA or TrkB": {"tested_on": "TrkA or TrkB", "assay": "RT-PCR analysis of Trk receptors in mouse brain", "format": "in vivo", "conditions": "mouse brain upon deoxygedunin treatment"}, "TrkB": {"molecular_target": "T1, TrkB (Homo sapiens, UniProt Q16620)", "T1 construct": "expressed in transfected cells; host or cells: HEK293", "T1 sequence (Q16620 32-822, species assumed)": "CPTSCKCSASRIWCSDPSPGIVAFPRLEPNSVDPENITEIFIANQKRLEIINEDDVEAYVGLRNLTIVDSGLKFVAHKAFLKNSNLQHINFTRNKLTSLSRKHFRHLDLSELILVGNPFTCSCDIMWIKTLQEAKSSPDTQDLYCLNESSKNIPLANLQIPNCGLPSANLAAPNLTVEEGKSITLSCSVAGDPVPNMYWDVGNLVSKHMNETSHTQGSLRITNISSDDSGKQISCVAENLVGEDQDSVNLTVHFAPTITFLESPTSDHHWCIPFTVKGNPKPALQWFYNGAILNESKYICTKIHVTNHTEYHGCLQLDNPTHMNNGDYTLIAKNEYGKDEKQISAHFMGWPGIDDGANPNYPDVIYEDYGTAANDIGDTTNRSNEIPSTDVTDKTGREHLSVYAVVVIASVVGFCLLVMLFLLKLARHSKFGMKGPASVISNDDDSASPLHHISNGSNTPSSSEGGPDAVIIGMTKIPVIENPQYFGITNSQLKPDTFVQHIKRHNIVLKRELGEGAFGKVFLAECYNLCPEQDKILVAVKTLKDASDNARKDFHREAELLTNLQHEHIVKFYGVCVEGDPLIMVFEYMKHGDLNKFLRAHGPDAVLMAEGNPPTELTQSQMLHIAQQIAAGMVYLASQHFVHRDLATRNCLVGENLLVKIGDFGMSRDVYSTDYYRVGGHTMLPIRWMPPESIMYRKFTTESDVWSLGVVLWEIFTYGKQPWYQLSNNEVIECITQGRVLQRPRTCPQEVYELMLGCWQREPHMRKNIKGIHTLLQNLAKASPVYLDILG", "assay": "Tyrosine phosphorylation of TrkB in transfected HEK293 cells", "format": "cell-based", "excerpt": "To determine if an identified active compound promotes tyrosine phosphorylation of the other Trk receptors, HEK293 cells are transfected with various Trk receptors, which is followed by treatment with the identified active compound. Treatment with an identified active compound that elicits tyrosine phosphorylation in the TrkB receptor but not in the TrkA or TrkC receptor indicates an active compound.\nTo determine whether deoxygedunin binds the intra-cellular domain (ICD) or extra-cellular domain (ECD) of the TrkB receptor, ligand binding assays with [^3H]-deoxygedunin were performed. […] The coprecipitated HA-TrkB was also prominently tyrosine phosphorylated (see FIG. 14, 3rd panel)."}, "TrkB F616A knockin mice": {"tested_on": "TrkB F616A knockin mice", "assay": "KA-provoked apoptosis (caspase-3) in TrkB F616A knockin mice", "format": "in vivo, mouse", "conditions": "TrkB F616A mice, without 1NMPP1", "experimental": "To determine if 1NMPP1 makes neurons treated with an identified active compound vulnerable to KA-provoked neuronal cell death, TrkF616A knockin mice are fed with 1NMPP1 (25 mM) in drinking water one day prior to pharmacological reagent treatment. The next day, the mice are intraperitoneally injected with KA (25 mg/kg), or an identified active compound (5 mg/kg) 4 hours prior to KA injection. The control mice are injected with either KA or an identified active compound alone, or the mice are administered an identified active compound 4 hours before KA. After 4 days, the mice are sacrificed and the brains are homogenized and ultracentrifuged. The supernatant then is employed for SDS-PAGE and immunoblotting analysis.\n[…] inversely correlated with TrkB activation by deoxygedunin (FIG. 20, top and middle panels)."}, "BDNF −/− pups": {"tested_on": "BDNF −/− pups", "assay": "Vestibular ganglion loss in BDNF −/− pups", "format": "in vivo, mouse", "experimental": "The cochleae of various drug-treated pups (P1 or P2 BDNF +/+ and −/− pups) were first fixed through cardioperfusion of 4% paraformaldehyde (in PBS). Each cochlea was dissected out and postfixed in 1% osmium for one hour at room temperature. Samples were decalcified in 0.35 M EDTA (pH 7.5, in PBS) for 72 hours at 4° C., followed by gradual dehydration in graded alcohols, infiltrated, and embedded in epoxy resin with the conventional protocols. Consecutive cochlear sections (5 μm in thickness) were cut with a microtome (Microm HM335E, GmbH) along the axis of the modiolus. Sections were stained with toluidine blue. Vestibular ganglions were identified by their location in the auditory internal meatus with the basal cochlear turn and the cochlear modiolus as morphological reference landmarks.\nTo examine whether deoxygedunin activating TrkB involved endogenous BDNF, BDNF conditional knockout mice with BDNF gene deletion limited to cortex (thus allowing normal development) were used. Deoxygedunin (5 mg/kg) was intraperitoneally injected into the BDNF cortex conditional knockout mice and the mice were sacrificed at 4 hours. […] Mutant mice lacking BDNF were known to have severe deficiencies in coordination and balance, which have been associated with excessive degeneration in several sensory ganglia including the vestibular ganglion (Ernfors et al., Nature 368, 147-150 (1994)). To determine whether deoxygedunin rescued this loss of vestibular ganglions in BDNF −/− pups, conventional BDNF +/− mice were bred with the same genotype mice. Deoxygedunin (5 mg/kg, i.p.) was administered to the pregnant mice at day E7.5 until birth."}, "C57BL/6 mice": {"tested_on": "C57BL/6 mice", "assay": "KA-induced apoptosis in hippocampus (TUNEL staining)", "format": "in vivo, mouse", "conditions": "5 mg/kg i.p. followed by 20 mg/kg KA, 5 days"}, "C57BL/6J mice": {"tested_on": "C57BL/6J mice", "assay": "Tone-shock fear conditioning model", "format": "in vivo, mouse", "experimental": "Following a two-day habituation to testing context, wild-type C57Bl/6J mice (N=28, male, 8-10 weeks old) were fear conditioned in eight identical startle response systems (SR-LAB, SDI) consisting of a nonrestrictive Plexiglas cylinder, 5.5 cm in diameter and 13 cm long, mounted on a Plexiglas platform which was located in a ventilated, sound-attenuated chamber. One hour prior to fear conditioning, mice received […] (N=14, 5 mg/kg, i.p.) or vehicle (N=14, 17% DMSO in PBS). Mice then received 5 tone—footshock pairings, with 30 second 12 kHz, 85 dB tones which co-terminated with the footshocks (intensity of 0.5 mA, 0.5 second) with a 5 minute intertrial interval (ITI), after which they were returned to their homecage. 24 and 48 hrs after training, the mice were tested for freezing in rodent modular test chambers with an inside area of 30.5 cm×24.1 cm×21.0 cm. Three minutes after placing the mouse in the test chamber, fifteen 30 second conditioned stimulus (CS) tones with an ITI of 1.5 min were delivered through a high-frequency speaker attached to the side of each chamber. Percentage time spent freezing during the CS presentations was calculated for each mouse using FreezeFrame (Product Number: ACT-100) (Coulbourn Instruments, Whitehall, Pa.).\nTo determine whether deoxygeduning would enhance learning in a whole animal model of learning and memory, in which BDNF-dependent TrkB activation was required, a tone-shock fear conditioning model was developed (see FIG. 26). Following habituation to the testing context, 28 adult wild-type, C57BL/6J mice were given systemic injections of deoxygedunin (N=14, 5 mg/kg, i.p.) or vehicle (N=14) 1 hour prior to being subjected to the tone-shock fear conditioning model. […] Mice were then tested, with no additional drug treatment, for cue-conditioned fear in the previously habituated context on the two days following fear acquisition. […] To further explore these effects, individual animals' freezing levels throughout the tone-fear testing sessions were examined. […]"}, "adult male rats": {"tested_on": "adult male rats", "assay": "Transient middle cerebral artery occlusion (MCAO) stroke model", "conditions": "2 h MCAO"}, "TrkA": {"molecular_target": "TrkA (Mus musculus, UniProt Q3UFB7)", "sequence (Q3UFB7 34-799)": "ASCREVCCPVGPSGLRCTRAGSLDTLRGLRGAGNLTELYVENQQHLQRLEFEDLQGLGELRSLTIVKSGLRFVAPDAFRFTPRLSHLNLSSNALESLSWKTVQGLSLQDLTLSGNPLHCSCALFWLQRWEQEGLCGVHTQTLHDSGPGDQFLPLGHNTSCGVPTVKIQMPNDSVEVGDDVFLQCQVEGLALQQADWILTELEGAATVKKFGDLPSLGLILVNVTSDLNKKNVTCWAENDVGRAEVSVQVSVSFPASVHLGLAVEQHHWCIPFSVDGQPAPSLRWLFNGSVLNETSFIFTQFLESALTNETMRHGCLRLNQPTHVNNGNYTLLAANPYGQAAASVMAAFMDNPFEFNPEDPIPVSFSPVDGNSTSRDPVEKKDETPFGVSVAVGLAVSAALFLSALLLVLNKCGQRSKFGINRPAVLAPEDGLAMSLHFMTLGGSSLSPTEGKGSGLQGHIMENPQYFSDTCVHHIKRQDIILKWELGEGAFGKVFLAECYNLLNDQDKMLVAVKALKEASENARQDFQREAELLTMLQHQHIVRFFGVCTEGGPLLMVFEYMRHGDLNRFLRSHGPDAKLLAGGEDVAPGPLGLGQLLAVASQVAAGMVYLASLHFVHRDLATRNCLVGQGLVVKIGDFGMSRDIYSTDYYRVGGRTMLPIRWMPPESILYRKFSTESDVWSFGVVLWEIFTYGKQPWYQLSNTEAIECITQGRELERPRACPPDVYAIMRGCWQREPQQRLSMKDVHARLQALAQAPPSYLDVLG", "assay": "TrkA activation in cortical neurons from knockout mouse pups", "format": "cell-based", "design": "endogenous in cells; host or cells: primary cortical neurons from mouse pups"}}}
{"smiles": "CC(=O)O[C@@H]1C[C@H]2C(C)(C)C(=O)C=C[C@]2(C)[C@H]2CC[C@]3(C)C(=CC(=O)O[C@H]3c3ccoc3)[C@@]21C", "note": "[deoxygedunin]", "values": [{"measurement": "change of TrkA or TrkB (RT-PCR)", "setting": "TrkA or TrkB", "value": "no change of TrkA or TrkB"}, {"measurement": "tyrosine phosphorylation in TrkB", "setting": "TrkB", "value": "elicited tyrosine phosphorylation in TrkB"}, {"measurement": "KA-provoked apoptosis", "setting": "TrkB F616A knockin mice", "value": "suppressed KA-provoked apoptosis"}, {"measurement": "vestibular ganglia in stained inner ear sections", "setting": "BDNF −/− pups; BDNF mutant pups, 5 mg/kg i.p.", "value": "displayed intact vestibular ganglia"}, {"measurement": "vestibular ganglia detected (quantitative analysis)", "setting": "BDNF −/− pups; BDNF −/− pups, 5 mg/kg i.p. to pregnant mice from E7.5 and to pups", "value": "42.2±6.3", "unit": "%"}, {"measurement": "survival of BDNF −/− pups under treatment", "setting": "BDNF −/− pups; neonatal pups receiving 5 mg/kg deoxygedunin", "value": "continued dying at P1 or P2"}, {"measurement": "KA provoked apoptosis in the hippocampus (TUNEL staining)", "setting": "C57BL/6 mice", "value": "diminished"}, {"measurement": "decrease of KA induced apoptosis in hippocampus", "setting": "C57BL/6 mice", "value": 60, "unit": "%"}, {"measurement": "shock reactivity during fear acquisition training", "setting": "C57BL/6J mice; 5 mg/kg i.p. 1 hour prior to conditioning, versus vehicle", "value": "no difference"}, {"measurement": "average level of tone-dependent conditioned freezing versus vehicle", "setting": "C57BL/6J mice; 5 mg/kg i.p. 1 hour prior to training, tested on the two following days", "value": "significantly different on both testing days"}, {"measurement": "increase in the level of freezing during the first set of CS trials", "setting": "C57BL/6J mice; 5 mg/kg i.p., each testing day, versus vehicle", "value": "2-3 fold"}, {"measurement": "survival of ischemic insult and treatment", "setting": "adult male rats; 5 mg/kg", "value": "All animals included in the study survived"}, {"measurement": "infarct volumes (TTC stained sections)", "setting": "adult male rats; 5 mg/kg 5 minutes prior to reperfusion, 24 hours after MCAO", "value": "significantly reduced infarct volumes"}, {"measurement": "TrkA activation", "setting": "TrkA; both wild-type and TrkC knockout neurons", "value": "not TrkA activation"}, {"measurement": "TrkA activation", "setting": "TrkA; cortical neurons (pups of TrkB +/− mice)", "value": "not TrkA receptor"}]}
